Measured values published in patent publication US20210147381A1, “1,2,3,4-SUBSTITUTED QUINOLINE COMPOUNDS AS SIP MODULATORS” (AbbVie Deutschland GmbH & Co. KG, priority 2017, published 2021).
Where a name gives a salt, the structure may show the parent alone.

Assays:
Assay type in all cases: cell-based
[1] = target: T1, human S1P5 receptor (S1PR5) (Homo sapiens, UniProt Q9H228); assay: Intracellular Ca2+ release (method 1), agonist potency and efficacy, S1P5; settings: for Emax: maximum effect in % of reference agonist phospho-fingolimod (100%), read-out: hS1P5 EMax; for EC50: recombinant CHO-K1 cells expressing human S1PR5, aequorin, Gq/i5, Ca2+ release, read-out: S1P5 EC50 range
T1 construct: host or cells: CHO-K1
T1 sequence (Q9H228 whole entry): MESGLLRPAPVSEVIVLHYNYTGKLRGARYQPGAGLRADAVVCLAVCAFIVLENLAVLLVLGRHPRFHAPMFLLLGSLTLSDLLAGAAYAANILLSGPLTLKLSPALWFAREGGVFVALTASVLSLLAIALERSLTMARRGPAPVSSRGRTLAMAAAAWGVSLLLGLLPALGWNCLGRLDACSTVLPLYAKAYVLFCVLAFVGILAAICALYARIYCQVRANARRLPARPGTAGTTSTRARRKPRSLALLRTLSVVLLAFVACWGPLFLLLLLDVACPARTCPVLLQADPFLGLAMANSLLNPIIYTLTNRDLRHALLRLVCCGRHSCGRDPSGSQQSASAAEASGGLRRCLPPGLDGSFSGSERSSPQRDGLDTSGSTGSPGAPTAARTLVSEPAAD
Procedure, shortened: (§1)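 CHO-K1 cells co-expressing the human S1P receptor, aequorin and Gq/i5 were loaded with Calcium 5 dye (1 h, 37° C), then equilibrated 45 min at RT in HBSS/20 mM Hepes/2.5 mM probenecid/0.1% BSA, pH 7.4. Fluorescence upon serially diluted compound fitted by 4-parameter logistic; EC50 and Emax normalized to phospho-fingolimod (100%).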

[2] = target: T2, human S1P1 receptor (S1PR1) (Homo sapiens, UniProt P21453); assay: Intracellular Ca2+ release (method 1), agonist potency, S1P1; settings: CHO-K1 cells expressing human S1PR1
T2 construct: host or cells: CHO-K1
T2 sequence (P21453 whole entry): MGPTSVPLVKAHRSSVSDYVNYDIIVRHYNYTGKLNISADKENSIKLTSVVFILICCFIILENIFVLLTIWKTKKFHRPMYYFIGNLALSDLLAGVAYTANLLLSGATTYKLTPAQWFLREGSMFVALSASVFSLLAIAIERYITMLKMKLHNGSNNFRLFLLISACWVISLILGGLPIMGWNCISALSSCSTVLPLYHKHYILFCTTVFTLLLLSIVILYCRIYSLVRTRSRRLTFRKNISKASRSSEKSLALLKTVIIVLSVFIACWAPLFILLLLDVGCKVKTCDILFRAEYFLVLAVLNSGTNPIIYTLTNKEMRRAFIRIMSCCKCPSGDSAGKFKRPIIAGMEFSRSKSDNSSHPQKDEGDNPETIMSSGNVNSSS
Procedure, shortened: as §1

[3] = target: T3, human S1P3 receptor (S1PR3) (Homo sapiens, UniProt Q99500); assay: Intracellular Ca2+ release (method 1), agonist potency, S1P3; settings: CHO-K1 cells expressing human S1PR3
T3 construct: host or cells: CHO-K1
T3 sequence (Q99500 whole entry): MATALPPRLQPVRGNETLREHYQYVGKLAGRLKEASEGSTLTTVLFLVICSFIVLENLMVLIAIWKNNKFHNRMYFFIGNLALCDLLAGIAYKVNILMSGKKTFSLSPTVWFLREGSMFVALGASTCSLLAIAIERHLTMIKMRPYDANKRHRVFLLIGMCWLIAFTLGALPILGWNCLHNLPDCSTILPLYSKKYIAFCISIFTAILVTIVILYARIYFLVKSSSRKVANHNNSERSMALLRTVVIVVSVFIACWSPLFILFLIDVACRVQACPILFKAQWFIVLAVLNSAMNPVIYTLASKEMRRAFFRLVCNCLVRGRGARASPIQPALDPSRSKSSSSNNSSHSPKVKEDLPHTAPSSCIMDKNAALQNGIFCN
Description: Agonistic activity and efficacy of compounds was assessed in recombinant cells using method 1 described below.
Agonist potency and efficacy were assessed by measurement of intracellular Ca^2+ release. Recombinant CHO-K1 cells (Euroscreen, Brussels, Belgium) expressing human S1PR5, S1PR1, S1PR3 or S1PR4 receptors, aequorin, and GTP binding protein Gq/i5 were cultured using a medium containing nutrient mixture F-12 Ham (Sigma-Aldrich) with 10% FBS, and 100 μg/mL gentamicin and equilibrated at 5% CO2.
15,000 cells in 20 μL medium were seeded into Biocoat poly-D-Lysine coated 384 well plates (Becton Dickinson #35-6663) and grown to 95% confluency after 24 h.
Culture medium was replaced by an assay buffer consisting of HBBS with Ca^2+ and Mg^2+ (Invitrogen #14025-050), 20 mmol/L Hepes (Sigma-Aldrich #H-3375), 2.5 mmol/L probenecid (Sigma-Aldrich #P-8761, and 0.1% BSA (Sigma-Aldrich #A-7030) pH 7.4. The Calcium 5 no-wash FLIPR assay kit (Molecular Devices #5000625) was performed as described in the kit instructions. Cells were incubated with Calcium 5 dye for 1 h at 37° C., 5% CO2 in the dark. After 45 min adaptation to RT assessment of agonist stimulation of intracellular Ca^2+ release was performed by addition of test compounds at various concentrations obtained by serial dilution. Phospho-fingolimod was used as positive control and reference agonist (intrinsic activity 100%).
Agonism of test compounds at the human S1Px receptors were characterized by the EC50 values (potencies) deduced from a nonlinear 4 parametric logistic curve fit to the measured fluorescence data after normalization to the lower and upper plateaus of the fitted reference agonist's (phospho-fingolimod)effect curve and by their efficacy (Emax) values represented by their maximum achievable effects in % of the reference agonist's efficacy, which is defined as an Emax of 100%.

[4] = target: T4, human S1P4 receptor (S1PR4) (Homo sapiens, UniProt O95977); assay: Intracellular Ca2+ release (method 1), agonist potency, S1P4; settings: CHO-K1 cells expressing human S1PR4
T4 construct: host or cells: CHO-K1
T4 sequence (O95977 1-384): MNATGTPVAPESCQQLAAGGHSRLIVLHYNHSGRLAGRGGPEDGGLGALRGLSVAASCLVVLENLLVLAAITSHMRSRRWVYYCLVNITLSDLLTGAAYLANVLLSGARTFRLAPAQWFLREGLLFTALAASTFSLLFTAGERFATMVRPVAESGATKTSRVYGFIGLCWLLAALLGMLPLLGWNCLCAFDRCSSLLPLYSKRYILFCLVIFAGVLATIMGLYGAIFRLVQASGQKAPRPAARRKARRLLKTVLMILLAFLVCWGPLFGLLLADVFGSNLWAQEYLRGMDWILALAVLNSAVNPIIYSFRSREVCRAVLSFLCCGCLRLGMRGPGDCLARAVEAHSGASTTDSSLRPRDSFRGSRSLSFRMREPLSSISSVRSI
Procedure, shortened: as §1

Row | Emax [1] [%] | EC50 [1] [nM] | EC50 ([2]; cells given as bound) [nM] | EC50 [3] [nM] | EC50 ([4]; cells given as bound) [nM] | EC50 [4] [nM] | EC50 [2] [nM] | SMILES
1 | < 50 | 1000 to 10000 | > 1000 | > 1000 | > 1000 | – | – | O=C(O)CCN1Cc2ccc(C#Cc3ccc(F)cc3)cc2C2(CC2)C1 [Compound 41, 3-(6′-((4-fluorophenyl)ethynyl)-1′H-spiro[cyclopropane-1,4′-isoquinolin]-2′(3′H)-yl)propanoic acid acetic acid salt (1:1)]
2 | > 100 | < 10 | – | > 1000 | > 1000 | – | 100 to 1000 | O=C(O)CCCN1Cc2ccc(C#Cc3ccc(OC4CCCC4)cc3)cc2C2(CC2)C1 [Compound 44, 4-(6′-((4-(cyclopentyloxy)phenyl)ethynyl)-1′H-spiro[cyclopropane-1,4′-isoquinolin]-2′(3′H)-yl)butanoic acid]
3 | 50 to 100 | < 10 | > 1000 | > 1000 | > 1000 | – | – | CCOc1ccc(C#Cc2ccc3c(c2)C2(CC2)CN(CCCC(=O)O)C3)cc1F [Compound 45, 4-(6′-((4-ethoxy-3-fluorophenyl)ethynyl)-1′H-spiro[cyclopropane-1,4′-isoquinolin]-2′(3′H)-yl)butanoic acid]
4 | > 100 | < 10 | > 1000 | > 1000 | > 1000 | – | – | CC(C)Oc1ccc(C#Cc2ccc3c(c2)C2(CC2)CN(CCCC(=O)O)C3)cc1 [Compound 46, 4-(6′-((4-isopropoxyphenyl)ethynyl)-1′H-spiro[cyclopropane-1,4′-isoquinolin]-2′(3′H)-yl)butanoic acid]
5 | > 100 | < 10 | > 1000 | > 1000 | > 1000 | – | – | O=C(O)CCCN1Cc2ccc(C#Cc3ccc(OC(F)(F)F)c(F)c3)cc2C2(CC2)C1 [Compound 47, 4-(6′-((3-fluoro-4-(trifluoromethoxy)phenyl)ethynyl)-1′H-spiro[cyclopropane-1,4′-isoquinolin]-2′(3′H)-yl)butanoic acid]
6 | 50 to 100 | 10 to 100 | > 1000 | > 1000 | > 1000 | – | – | O=C(O)CCCN1Cc2ccc(C#Cc3ccc(OC(F)(F)F)cc3)cc2C2(CC2)C1 [Compound 48, 4-(6′-((4-(trifluoromethoxy)phenyl)ethynyl)-1′H-spiro[cyclopropane-1,4′-isoquinolin]-2′(3′H)-yl)butanoic acid]

Second part, the molecule before the results:

Row | SMILES | Emax [1] [%] | EC50 [1] [nM] | EC50 ([2]; cells given as bound) [nM] | EC50 [3] [nM] | EC50 ([4]; cells given as bound) [nM] | EC50 [4] [nM] | EC50 [2] [nM]
7 | O=C(O)CCN1Cc2ccc(C#Cc3ccsc3)cc2C2(CC2)C1 [Compound 38, 3-(6′-(thiophen-3-ylethynyl)-1′H-spiro[cyclopropane-1,4′-isoquinolin]-2′(3′H)-yl)propanoic acid] | 50 to 100 | 10 to 100 | > 1000 | > 1000 | > 1000 | – | –
8 | O=C(O)CCN1Cc2ccc(C#Cc3ccccc3)cc2C2(CC2)C1 [Compound 39, 3-(6′-(phenylethynyl)-1′H-spiro[cyclopropane-1,4′-isoquinolin]-2′(3′H)-yl)propanoic acid acetic acid salt (1:1)] | 50 to 100 | 100 to 1000 | > 1000 | > 1000 | > 1000 | – | –
9 | O=C(O)CCN1Cc2ccc(C#Cc3cccc(Cl)n3)cc2C2(CC2)C1 [Compound 40, 3-(6′-((6-chloropyridin-2-yl)ethynyl)-1′H-spiro[cyclopropane-1,4′-isoquinolin]-2′(3′H)-yl)propanoic acid acetic acid salt (1:1)] | 50 to 100 | 100 to 1000 | > 1000 | > 1000 | – | 100 to 1000 | –
10 | CCCn1cc(C#Cc2ccc3c(c2)C2(CC2)CN(CCC(=O)O)C3)cn1 [Compound 42, 3-(6′-((1-propyl-1H-pyrazol-4-yl)ethynyl)-1′H-spiro[cyclopropane-1,4′-isoquinolin]-2′(3′H)-yl)propanoic acid acetic acid salt (1:1)] | 50 to 100 | 1000 to 10000 | > 1000 | > 1000 | > 1000 | – | –
11 | Cc1cccnc1C#Cc1ccc2c(c1)C1(CC1)CN(CCC(=O)O)C2 [Compound 43, 3-(6′-((3-methylpyridin-2-yl)ethynyl)-1′H-spiro[cyclopropane-1,4′-isoquinolin]-2′(3′H)-yl)propanoic acid acetic acid salt (1:1)] | 50 to 100 | 1000 to 10000 | > 1000 | > 1000 | > 1000 | – | –
12 | CC(CC(=O)O)CN1Cc2ccc(C#Cc3c(F)cccc3F)cc2C2(CC2)C1 (stereo not drawn) [Compound 58, 4-(6′-((2,6-difluorophenyl)ethynyl)-1′H-spiro[cyclopropane-1,4′-isoquinolin]-2′(3′H)-yl)-3-methylbutanoic acid] | 50 to 100 | < 10 | > 1000 | > 1000 | – | 100 to 1000 | –
